In brackets after ≈: the same amount, converted by molar mass.
What follows are molecules tested on S. aureus ATCC 13709 (assay: MIC, S. aureus ATCC 13709). Details: Staphylococcus aureus, ATCC13709, S. aureus; Alamar Blue read after overnight incubation at 35° C.; read-out: MIC Sa.
Format: cell-based

Compound | MIC
CNc1cccc2c1[nH]c1nc(Oc3cncnc3)cc(N3CC4(CCNC4)C3)c12 [Compound 3.67] | 16 µg/mL (≈ 39.9 µM)
CNc1cc(F)cc2c1[nH]c1nc(Oc3cnc(CCO)nc3)nc(N3CC4CC3C[C@@H]4N)c12 (some centres unmarked) [Compound 4.428] | ≤ 0.5 µg/mL
CNc1cccc2c1[nH]c1nc(Oc3cncnc3)cc(N3CC4C(N)C4C3)c12 (centres unmarked) [Compound 3.28] | 1 µg/mL (≈ 2.58 µM)
CNc1cccc2c1[nH]c1nc(Sc3cncc(S(=O)(=O)NCCO)c3)nc(N3CC4C(N)C4C3)c12 (centres unmarked) [Compound 1.42] | 8 µg/mL (≈ 15.2 µM)
CNc1cccc2c1[nH]c1nc(Sc3cc4ncccc4[n+]([O-])c3)nc(N3C[C@@H]4[C@@H](N)[C@@H]4C3)c12 [Compound 1.31] | ≤ 0.5 µg/mL
CNc1nccc2c1[nH]c1nc(Sc3cnc4nccnc4c3)nc(N3CC[C@@H](N)C3)c12 [Compound 7.01] | 8 µg/mL (≈ 18 µM)
CNc1cccc2c1[nH]c1nc(Oc3ccc[n+]([O-])c3)nc(Oc3cnc(C)nc3)c12 [Compound 8.3] | 2 µg/mL (≈ 4.81 µM)
CNc1cc(F)cc2c1[nH]c1nc(Oc3cnc(C#N)c(C)c3)nc(N3CC4CC3C[C@@H]4N)c12 (some centres unmarked) [Compound 4.435] | ≤ 0.5 µg/mL
CNc1cccc2c1[nH]c1nc(Oc3cncnc3)cc(N3CC4CCC(N)C4C3)c12 (centres unmarked) [Compound 3.15] | 1 µg/mL (≈ 2.41 µM)
CNc1cccc2c1[nH]c1nc(Oc3cnc4cccnc4c3)cc(N3CC(N)C4(CC4)C3)c12 (centres unmarked) [Compound 3.52] | ≤ 0.5 µg/mL
CNc1cccc2c1[nH]c1nc(Oc3cncnc3)cc(N3CCC(C(N)=O)C3)c12 (centres unmarked) [Compound 3.17] | 2 µg/mL (≈ 4.96 µM)
CNc1cc(F)c(F)c2c1[nH]c1nc(Oc3cnc4c(c3)ncn4C3CC3)nc(N3C[C@H]4C[C@@H]3C[C@H]4N)c12 [Compound 5.15] | ≤ 0.5 µg/mL
CNc1cccc2c1[nH]c1nc(Oc3cncnc3)cc(N3CC(F)[C@@H](N)C3)c12 (some centres unmarked) [Compound 3.63] | ≤ 0.5 µg/mL
CNc1cccc2c1[nH]c1nc(Oc3cnc4ccoc4c3)cc(N3CC4C(N)C4C3)c12 (centres unmarked) [Compound 3.23] | ≤ 0.5 µg/mL

Same assay, conditions: Staphylococcus aureus, ATCC13709, Table 15; R2 is joined to R4; read-out: SA MIC

Compound | MIC
CNc1cc(F)cc2c1[nH]c1nc3nc(c12)NCCCCCCNC(=O)c1cncc(c1)O3 | ≤ 0.5 µg/mL

Same assay, conditions: Staphylococcus aureus, ATCC13709, Table 16; new R4 substituents; read-out: SA MIC

Compound | MIC
CNc1cc(F)cc2c1[nH]c1nc(Oc3cnc(C)nc3)nc(N3CC(N)C(C(F)(F)F)C3)c12 (centres unmarked) [drawing 1824] | ≤ 0.5 µg/mL
CNc1cc(F)cc2c1[nH]c1nc(Oc3cnc(C)nc3)nc(N3CCC(C)(CN)C3)c12 (centres unmarked) | ≤ 0.5 µg/mL
CNc1cc(F)cc2c1[nH]c1nc(Oc3cnc(C)nc3)nc(N3CC(N)C(C(=O)NCC(C)O)C3)c12 (centres unmarked) [drawing 1822] | 8 µg/mL (≈ 15.7 µM)

Same assay, conditions: Table 11; compounds wherein L = CH2

Compound | SA MIC
CNc1cc(F)cc2c1[nH]c1nc(Cc3cnc(C)nc3)nc(N3CC4(CCC4N)C3)c12 (centres unmarked) | ≤ 0.5 µg/mL

Same assay, conditions: Table 12; Z is C and connected to R4

Compound | SA MIC
CNc1cc(F)c2c3c1[nH]c1nc(Oc4cnc(N)nc4)nc(c13)-c1ccccc1NC2 | ≤ 0.5 µg/mL

Same assay, conditions: Table 13; L = NH

Compound | SA MIC
CNc1cc(F)cc2c1[nH]c1nc(Nc3cnc4c(c3)nnn4C(C)C)nc(N3C[C@H]4CC3C[C@H]4N)c12 | ≤ 0.5 µg/mL

Same assay, conditions: Table 18, Sa

Compound | MIC Sa
CNc1cc(F)cc2c1[nH]c1nc(Oc3cnc(C)nc3)nc(N3CCC(C(C)=O)C3)c12 (centres unmarked) [Compound 10.113] | ≤ 0.5 µg/mL
CNc1cc(F)cc2c1[nH]c1nc(Oc3ccc4ccnn4c3)nc(N3C[C@H]4CCN[C@H]4C3)c12 [Compound 10.52] | ≤ 0.5 µg/mL
CNc1cc(F)cc2c1[nH]c1nc(Nc3cnn4ccnc4c3)nc(N3C[C@H]4C[C@@H]3C[C@H]4N)c12 [Compound 10.46] | ≤ 0.5 µg/mL
CNc1cc(Cl)cc2c1[nH]c1nc(Oc3cnc(C(C)O)nc3)nc(N3C[C@H]4C[C@@H]3C[C@H]4N)c12 (some centres unmarked) [Compound 10.33] | ≤ 0.5 µg/mL
CNc1cc(F)cc2c1[nH]c1nc(NCc3cccnc3)nc(N3C[C@H]4C[C@@H]3C[C@H]4N)c12 [Compound 10.51] | 4 µg/mL (≈ 9.25 µM)
CNc1cc(F)cc2c1[nH]c1nc(Nc3cnc(C)nc3)nc(N3C[C@H]4C[C@@H]3C[C@H]4N)c12 [Compound 10.41] | ≤ 0.5 µg/mL
CNc1cc(F)c(F)c2c1[nH]c1nc(Oc3cnc([C@H](C)O)nc3)nc(N3C[C@H]4C[C@@H]3C[C@H]4N)c12 [Compound 10.25] | ≤ 0.5 µg/mL

These molecules were tested on E. coli ATCC 25922 (assay: MIC, E. coli ATCC 25922). Details: Escherichia coli, ATCC25922, E. coli; Alamar Blue read after overnight incubation at 35° C.; read-out: MIC Ec.
Format: cell-based

Compound | MIC
CNc1cccc2c1[nH]c1nc(Oc3cncnc3)cc(N3CC4(CCNC4)C3)c12 [Compound 3.67] | 64 µg/mL (≈ 159 µM)
CNc1cc(F)cc2c1[nH]c1nc(Oc3cnc(CCO)nc3)nc(N3CC4CC3C[C@@H]4N)c12 (some centres unmarked) [Compound 4.428] | 2 µg/mL (≈ 4.31 µM)
CNc1cccc2c1[nH]c1nc(Oc3cncnc3)cc(N3CC4C(N)C4C3)c12 (centres unmarked) [Compound 3.28] | 2 µg/mL (≈ 5.16 µM)
CNc1cccc2c1[nH]c1nc(Sc3cncc(S(=O)(=O)NCCO)c3)nc(N3CC4C(N)C4C3)c12 (centres unmarked) [Compound 1.42] | 32 µg/mL (≈ 60.8 µM)
CNc1cccc2c1[nH]c1nc(Sc3cc4ncccc4[n+]([O-])c3)nc(N3C[C@@H]4[C@@H](N)[C@@H]4C3)c12 [Compound 1.31] | ≤ 0.5 µg/mL
CNc1nccc2c1[nH]c1nc(Sc3cnc4nccnc4c3)nc(N3CC[C@@H](N)C3)c12 [Compound 7.01] | > 64 µg/mL
CNc1cccc2c1[nH]c1nc(Oc3ccc[n+]([O-])c3)nc(Oc3cnc(C)nc3)c12 [Compound 8.3] | 64 µg/mL (≈ 154 µM)
CNc1cc(F)cc2c1[nH]c1nc(Oc3cnc(C#N)c(C)c3)nc(N3CC4CC3C[C@@H]4N)c12 (some centres unmarked) [Compound 4.435] | ≤ 0.5 µg/mL
CNc1cccc2c1[nH]c1nc(Oc3cncnc3)cc(N3CC4CCC(N)C4C3)c12 (centres unmarked) [Compound 3.15] | 8 µg/mL (≈ 19.3 µM)
CNc1cccc2c1[nH]c1nc(Oc3cnc4cccnc4c3)cc(N3CC(N)C4(CC4)C3)c12 (centres unmarked) [Compound 3.52] | ≤ 0.5 µg/mL
CNc1cccc2c1[nH]c1nc(Oc3cncnc3)cc(N3CCC(C(N)=O)C3)c12 (centres unmarked) [Compound 3.17] | > 16 µg/mL
CNc1cc(F)c(F)c2c1[nH]c1nc(Oc3cnc4c(c3)ncn4C3CC3)nc(N3C[C@H]4C[C@@H]3C[C@H]4N)c12 [Compound 5.15] | 1 µg/mL (≈ 1.93 µM)
CNc1cccc2c1[nH]c1nc(Oc3cncnc3)cc(N3CC(F)[C@@H](N)C3)c12 (some centres unmarked) [Compound 3.63] | 8 µg/mL (≈ 20.3 µM)
CNc1cccc2c1[nH]c1nc(Oc3cnc4ccoc4c3)cc(N3CC4C(N)C4C3)c12 (centres unmarked) [Compound 3.23] | 2 µg/mL (≈ 4.69 µM)

Same assay, conditions: Escherichia coli, ATCC25922, Table 15; R2 is joined to R4; EC8 not defined; read-out: EC8 MIC

Compound | MIC
CNc1cc(F)cc2c1[nH]c1nc3nc(c12)NCCCCCCNC(=O)c1cncc(c1)O3 | 1 µg/mL (≈ 2.22 µM)

Same assay, conditions: Escherichia coli, ATCC25922, Table 16; new R4 substituents; EC8 not defined; read-out: EC8 MIC

Compound | MIC
CNc1cc(F)cc2c1[nH]c1nc(Oc3cnc(C)nc3)nc(N3CC(N)C(C(F)(F)F)C3)c12 (centres unmarked) [drawing 1824] | > 16 µg/mL
CNc1cc(F)cc2c1[nH]c1nc(Oc3cnc(C)nc3)nc(N3CCC(C)(CN)C3)c12 (centres unmarked) | ≤ 0.5 µg/mL
CNc1cc(F)cc2c1[nH]c1nc(Oc3cnc(C)nc3)nc(N3CC(N)C(C(=O)NCC(C)O)C3)c12 (centres unmarked) [drawing 1822] | > 16 µg/mL

Same assay, conditions: Table 11; L = CH2; EC8 not defined

Compound | EC8 MIC
CNc1cc(F)cc2c1[nH]c1nc(Cc3cnc(C)nc3)nc(N3CC4(CCC4N)C3)c12 (centres unmarked) | 1 µg/mL

Same assay, conditions: Table 12; Z is C and connected to R4; EC8 not defined

Compound | EC8 MIC
CNc1cc(F)c2c3c1[nH]c1nc(Oc4cnc(N)nc4)nc(c13)-c1ccccc1NC2 | > 16 µg/mL

Same assay, conditions: Table 13; L = NH

Compound | EC MIC
CNc1cc(F)cc2c1[nH]c1nc(Nc3cnc4c(c3)nnn4C(C)C)nc(N3C[C@H]4CC3C[C@H]4N)c12 | 1 µg/mL

Same assay, conditions: Table 18, Ec

Compound | MIC Ec
CNc1cc(F)cc2c1[nH]c1nc(Oc3cnc(C)nc3)nc(N3CCC(C(C)=O)C3)c12 (centres unmarked) [Compound 10.113] | ≤ 0.5 µg/mL
CNc1cc(F)cc2c1[nH]c1nc(Oc3ccc4ccnn4c3)nc(N3C[C@H]4CCN[C@H]4C3)c12 [Compound 10.52] | ≤ 0.5 µg/mL
CNc1cc(F)cc2c1[nH]c1nc(Nc3cnn4ccnc4c3)nc(N3C[C@H]4C[C@@H]3C[C@H]4N)c12 [Compound 10.46] | ≤ 0.5 µg/mL
CNc1cc(Cl)cc2c1[nH]c1nc(Oc3cnc(C(C)O)nc3)nc(N3C[C@H]4C[C@@H]3C[C@H]4N)c12 (some centres unmarked) [Compound 10.33] | ≤ 0.5 µg/mL
CNc1cc(F)cc2c1[nH]c1nc(NCc3cccnc3)nc(N3C[C@H]4C[C@@H]3C[C@H]4N)c12 [Compound 10.51] | 16 µg/mL (≈ 37 µM)
CNc1cc(F)cc2c1[nH]c1nc(Nc3cnc(C)nc3)nc(N3C[C@H]4C[C@@H]3C[C@H]4N)c12 [Compound 10.41] | ≤ 0.5 µg/mL
CNc1cc(F)c(F)c2c1[nH]c1nc(Oc3cnc([C@H](C)O)nc3)nc(N3C[C@H]4C[C@@H]3C[C@H]4N)c12 [Compound 10.25] | ≤ 0.5 µg/mL
